In PMC10482942, “Novel quinazoline-1,2,3-triazole hybrids with anticancer and MET kinase targeting properties” (Scientific Reports, 2023):

Experiments:
HT-29 cells = assay: SRB antiproliferative assay, monolayer culture; format: cell-based, human; conditions: mean ± S.E.M.
Description: (§1) EBC-1 (human lung […] cells with MET gene amplification) and Mia-Paca-2 (human PDAC cells) were obtained from Japanese Collection of Research Bio Resources Cell Bank (JCRB). AsPC-1 (human PDAC), MKN-45 (human gastric adenocarcinoma cells with MET gene amplification), HT-29 (human colorectal adenocarcinoma), and K562 cells (human chronic myelogenous leukemia) were obtained from the Iranian Biological Resource Centre, Tehran, Iran. AsPC-1, EBC-1, MKN-45, and K562 cells were cultured in RPMI 1640 medium containing 10% heat-inactivated fetal bovine serum (FBS) and 1% penicillin/streptomycin. Mia-Paca-2 and HT-29 cells were grown in DMEM low glucose, containing 10% and 20% heat-inactivated FBS, resoectively and 100 U/ml penicillin/streptomycin. All cells were grown in monolayer cultures at 37 °C in a humidified incubator with 5% CO2.
(§2) Antiproliferative effects of synthetic compounds were evaluated by the SRB assay as described previously. Cancer cells were trypsinized, homogenous cell suspensions were prepared and 100 µl of cell suspensions were cultured at the densities of 5 × 10^4 cells/ml (for AsPC-1 and Mia-Paca-2), 4 × 10^4 cells/m (for EBC-1 and MKN-45), 3 × 10^4 cells/ml (for K562) and 1 × 10^4 cells/ml (for HT-29) in 96-well flat-bottom plates. After 24 h of incubation to allow cells to attach and resume optimal growth, the synthetic compounds dissolved in DMSO and diluted in the growth medium were added. One hundred µl of synthesized derivatives were added at different concentrations in triplicate and incubated for an additional 72 h at 37 °C. The cells were then fixed by gentle addition of 50 μl cold trichloroacetic acid (TCA) 50% (w/v, 10% final concentration) and incubated for 60 min at 4 °C. Then, the supernatant was discarded, and the plates were washed four times with distilled water and air dried. Afterwards, 100 μl of SRB solution 0.04% (w/v) dissolved in 1% acetic acid was added to each well, and plates were incubated for 15 min at room temperature. At the next step, the unbound dye was removed by washing four times with 1% acetic acid and the plates were air dried. The bound stain was finally solubilized with 150 μl of 10 mM Tris base solution, and the absorbance was recorded at a wavelength of 540 nm with a Bio-Tek microplate reader (Model Synergy HTX).

Mia-Paca-2 cells = assay: SRB antiproliferative assay, monolayer culture; format: cell-based, human; conditions: mean ± S.E.M.
Description: as §1, §2

MKN-45 cells = assay: SRB antiproliferative assay, monolayer culture; format: cell-based, human; conditions: mean ± S.E.M.
Description: as §1, §2

K562 cells = assay: SRB antiproliferative assay, monolayer culture; format: cell-based, human; conditions: mean ± S.E.M.
Description: as §1, §2

EBC-1 cells = assay: SRB antiproliferative assay, monolayer culture; format: cell-based, human; conditions: mean ± S.E.M.
Description: as §1, §2

AsPC-1 cells = assay: SRB antiproliferative assay, monolayer culture; format: cell-based, human; conditions: mean ± S.E.M.
Description: as §1, §2

SMILES | IC50 (HT-29 cells; Homo sapiens, HT-29, 72 h) [µM] | IC50 (Mia-Paca-2 cells; Homo sapiens, MIA PaCa-2, 72 h) [µM] | IC50 (MKN-45 cells; Homo sapiens, MKN-45, 72 h) [µM] | IC50 (K562 cells; Homo sapiens, K562, 72 h) [µM] | IC50 (AsPC-1 cells; Homo sapiens, ASPC1, 72 h) [µM] | melting point [°C] | IC50 (EBC-1 cells; Homo sapiens, EBC-1, 72 h) [µM] | IC50 (HT-29 cells; 72 h) [µM] | IC50 (Mia-Paca-2 cells; 72 h) [µM] | IC50 (MKN-45 cells; 72 h) [µM] | IC50 (K562 cells; 72 h) [µM] | IC50 (EBC-1 cells; 72 h) [µM] | IC50 (AsPC-1 cells; 72 h) [µM]
Fc1ccc(Cn2cc(COc3ccc(C=NNc4ncnc5ccccc45)cc3)nn2)cc1 [Compound 8b, 2-(4-((1-(4-Fluorobenzyl)-1H-1,2,3-triazol-4-yl)methoxy)benzylidene)-1-(quinazolin-4-yl)hydrazine] | > 100 | > 100 | > 100 | > 100 | > 100 | 204.9 | > 100 | – | – | – | – | – | –
Clc1ccc(Cn2cc(COc3ccc(C=NNc4ncnc5ccccc45)cc3)nn2)cc1Cl [Compound 8d, 2-(4-((1-(3,4-Dichlorobenzyl)-1H-1,2,3-triazol-4-yl)methoxy)benzylidene)-1-(quinazolin-4-yl)hydrazine] | 93.4 ± 2.2 | > 100 | 83.6 ± 6 | > 100 | > 100 | 224.6 | > 100 | – | – | – | – | – | –
Clc1ccc(Cn2cc(COc3ccc(C=NNc4ncnc5ccccc45)cc3)nn2)cc1 [Compound 8e, 2-(4-((1-(4-Chlorobenzyl)-1H-1,2,3-triazol-4-yl)methoxy)benzylidene)-1-(quinazolin-4-yl)hydrazine] | > 100 | > 100 | > 100 | 61.5 ± 21.6 | > 100 | – | > 100 | – | – | – | – | – | –
O=[N+]([O-])c1ccc(Cn2cc(COc3ccc(C=NNc4ncnc5ccccc45)cc3)nn2)cc1 [Compound 8f, 2-(4-((1-(4-Nitrobenzyl)-1H-1,2,3-triazol-4-yl)methoxy)benzylidene)-1-(quinazolin-4-yl)hydrazine] | > 100 | > 100 | 56.6 ± 6.5 | > 100 | > 100 | 208.4 | > 100 | – | – | – | – | – | –
C(=NNc1ncnc2ccccc12)c1ccc(OCc2cn(Cc3ccccc3)nn2)cc1 [Compound 8g, 2-(4-((1-Benzyl-1H-1,2,3-triazol-4-yl)methoxy)benzylidene)-1-(quinazolin-4-yl)hydrazine] | > 100 | > 100 | 67.7 ± 4.6 | 96.6 ± 1.1 | > 100 | 218.6 | > 100 | – | – | – | – | – | –
O=C1c2ccccc2C(=O)N1CCCn1cc(COc2ccccc2C=NNc2ncnc3ccccc23)nn1 [Compound 8i] | – | – | – | – | – | – | – | > 100 | > 100 | > 100 | 86.2 ± 3 | 89.4 ± 4.3 | > 100

Second part, led by results:

IC50 (HT-29 cells; Homo sapiens, HT-29, 72 h) [µM] | IC50 (Mia-Paca-2 cells; Homo sapiens, MIA PaCa-2, 72 h) [µM] | IC50 (MKN-45 cells; Homo sapiens, MKN-45, 72 h) [µM] | IC50 (K562 cells; Homo sapiens, K562, 72 h) [µM] | IC50 (AsPC-1 cells; Homo sapiens, ASPC1, 72 h) [µM] | melting point [°C] | SMILES | IC50 (EBC-1 cells; Homo sapiens, EBC-1, 72 h) [µM] | IC50 (HT-29 cells; 72 h) [µM] | IC50 (Mia-Paca-2 cells; 72 h) [µM] | IC50 (MKN-45 cells; 72 h) [µM] | IC50 (K562 cells; 72 h) [µM] | IC50 (EBC-1 cells; 72 h) [µM] | IC50 (AsPC-1 cells; 72 h) [µM]
3.7 ± 0.67 | 3.8 ± 0.6 | 1.04 ± 0.06 | 4 ± 1 | 1.4 ± 0.1 | – | COc1cc2nccc(Oc3ccc(NC(=O)C4(C(=O)Nc5ccc(F)cc5)CC4)cc3)c2cc1OC [Cabozantinib, reference compound] | 0.059 ± 0.014 | – | – | – | – | – | –
> 100 | > 100 | > 100 | 57.4 ± 21.9 | > 100 | 207.3 | Brc1ccc(Cn2cc(COc3ccc(C=NNc4ncnc5ccccc45)cc3)nn2)cc1 [Compound 8a, 2-(4-((1-(4-Bromobenzyl)-1H-1,2,3-triazol-4-yl)methoxy)benzylidene)-1-(quinazolin-4-yl)hydrazine] | > 100 | – | – | – | – | – | –
– | 2.36 ± 1.2 | 0.05 ± 0.003 | – | 2.45 ± 1.3 | – | C[C@@H](Oc1cc(-c2cnn(C3CCNCC3)c2)cnc1N)c1c(Cl)ccc(F)c1Cl [Crizotinib, reference compound] | 0.006 ± 0.001 | – | – | – | – | – | –
